Structures are written as SMILES. pIC50: −log10 of the molar value. Read-outs that look alike come from different tables or passages of the source.

The target in this test is T1, CETP (Homo sapiens, UniProt P11597).
T1 sequence (P11597 18-493): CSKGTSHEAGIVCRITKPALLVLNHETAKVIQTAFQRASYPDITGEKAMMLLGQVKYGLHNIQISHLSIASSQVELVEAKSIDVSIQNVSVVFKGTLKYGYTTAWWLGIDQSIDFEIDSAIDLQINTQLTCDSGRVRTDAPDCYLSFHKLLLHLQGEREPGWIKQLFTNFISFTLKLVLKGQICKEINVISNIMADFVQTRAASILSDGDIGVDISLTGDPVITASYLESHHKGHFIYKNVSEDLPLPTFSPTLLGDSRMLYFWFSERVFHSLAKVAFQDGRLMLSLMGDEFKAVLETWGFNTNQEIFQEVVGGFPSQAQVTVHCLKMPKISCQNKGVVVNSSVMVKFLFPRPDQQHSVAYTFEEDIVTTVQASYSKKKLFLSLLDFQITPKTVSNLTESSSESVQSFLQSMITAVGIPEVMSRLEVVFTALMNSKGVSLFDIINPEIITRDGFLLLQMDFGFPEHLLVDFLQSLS
The test can be described thus: Assay of CETP Inhibition using Purified Components (Reconstituted Buffer Assay). Further details: made in house; host or cells: CHO cells (serum-free conditioned medium). Conditions: transfer of [3H]CE from HDL to LDL. Type of test: biochemical. The procedure, abridged: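 Purified human recombinant CETP from transfected CHO cells was incubated with [^3H]CE-labeled HDL donor and LDL acceptor in Tris pH 7.4/NaCl/EDTA/1% BSA buffer for 2 h at 37 °C. LDL was then precipitated with dextran sulfate/MgCl2, filtered, and counted by liquid scintillation to give IC50 for CE transfer.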

Where [1] appears, read: Inhibition of CETP activity in reconstituted buffer assay, read-out: IC50.

Take `Oc1cccc(CN(CC(O)C(F)(F)F)c2cccc(OC(F)(F)F)c2)c1` (stereo not shown) [Example 357]: the pIC50 under setting [1] is 4.40.

As to `O=C(Nc1ccc(-c2ccccc2)cc1)N(CC(O)C(F)(F)F)c1cccc(OC(F)(F)F)c1` (stereo not shown) [Example 369], under setting [1], the negative-log IC50 (pIC50) is below 4.00.

In the case of `OC(CN(Cc1cccc(OC(F)(F)C(F)F)c1)c1cccc(OCc2ccc(C(F)(F)F)cc2)c1)C(F)(F)F` (stereo not shown) [Example 416], the pIC50 under setting [1] was 6.29.

Regarding `OC(CN(Cc1ccc(C(F)(F)F)cc1)Cc1ccccc1F)C(F)(F)F` (stereo not shown) [compound 171], the pIC50 under setting [1] was below 4.00.

Regarding `CS(=O)(=O)c1ccc(-c2cccc(N(Cc3cccc(OC(F)(F)C(F)F)c3)CC(O)C(F)(F)F)c2)cc1` (stereo not shown) [Example 575], the pIC50 under setting [1] is below 4.30.

For `CC(=O)c1ccc(Sc2cccc(N(Cc3cccc(OC(F)(F)C(F)F)c3)CC(O)C(F)(F)F)c2)cc1` (stereo not shown) [Example 478], the pIC50 under setting [1] is 5.74.

Take `OC(CN(Cc1cccc(OC(F)(F)C(F)F)c1)c1cccc(OCc2ccncc2)c1)C(F)(F)F` (stereo not shown) [Example 433]: the pIC50 under setting [1] is 5.25.

As for `COc1ccccc1N(Cc1cccc(C(F)(F)F)c1)CC(O)C(F)(F)F` (stereo not shown) [Example 669], the pIC50 under setting [1] was below 4.00.

On to `OC(CN(Cc1cccc(OC(F)(F)C(F)F)c1)c1cccc(OCc2ccccc2Br)c1)C(F)(F)F` (stereo not shown) [Example 403], for which, under setting [1], the pIC50 is 5.82.

As for `OC(CN(Cc1ccncc1)c1cccc(OC(F)(F)F)c1)C(F)(F)F` (stereo not shown) [Example 349], the negative-log IC50 (pIC50) under setting [1] is below 4.00.

For `OC(CN(Cc1cc(C(F)(F)F)cc(C(F)(F)F)c1)c1cccc(F)c1)C(F)(F)F` (stereo not shown) [Example 677], the pIC50 under setting [1] was below 4.00.

Take `CCOc1cccc(CN(CC(O)COC(F)(F)C(F)F)c2cccc(Oc3ccccc3)c2)c1` (stereo not shown) [Example 213]: under setting [1], the pIC50 was 4.96.

Turning to `OC(CN(Cc1cccc(C(F)(F)F)c1)c1ccc(F)c(C(F)(F)F)c1)C(F)(F)F` (stereo not shown) [Example 52], the pIC50 under setting [1] was 5.15.

With `COCc1cccc(N(Cc2cccc(OC(F)(F)C(F)F)c2)CC(O)C(F)(F)F)c1` (stereo not shown) [Example 514C, 3-[[3(methoxymethyl)phenyl][[3-(1,1,2,2-tetrafluoroethoxy)-phenyl]methyl]amino]-1,1,1-trifluoro-2-propanol], the pIC50 under setting [1] is 5.18.

For the compound `O=C(c1ccccc1)c1cccc(N(Cc2cccc(OC(F)(F)C(F)F)c2)CC(O)C(F)(F)F)c1` (stereo not shown) [Example 579], the pIC50 under setting [1] was 5.74.

On to `OC(CN(Cc1ccc(Oc2ccc(Cl)c(Cl)c2)cc1)c1cccc(Oc2ccccc2)c1)C(F)(F)F` (stereo not shown) [Example 685], for which the pIC50 under setting [1] was 4.22.

Regarding `CC(C)(C)CNC(=O)c1cccc(N(Cc2cccc(OC(F)(F)C(F)F)c2)CC(O)C(F)(F)F)c1` (stereo not shown) [Example 462], the pIC50 under setting [1] is 4.92.

In the case of `CC(C)(C)c1ccc(-c2cccc(N(Cc3cccc(OC(F)(F)C(F)F)c3)CC(O)C(F)(F)F)c2)cc1` (stereo not shown) [Example 574], the negative-log IC50 (pIC50) under setting [1] is 4.74.

Take `OC(CN(Cc1cccc(OC(F)(F)C(F)F)c1)c1cccc(OCc2ccc(Br)cc2)c1)C(F)(F)F` (stereo not shown) [Example 421]: the pIC50 under setting [1] is 6.31.

For `O=C(O)c1ccc(-c2cccc(N(Cc3cccc(OC(F)(F)C(F)F)c3)CC(O)C(F)(F)F)c2)cc1` (stereo not shown) [Example 573], under setting [1], the pIC50 was below 4.30.

As for `OC(CN(Cc1cccc(OC(F)(F)C(F)F)c1)c1cccc(OCc2c(F)cc(F)cc2F)c1)C(F)(F)F` (stereo not shown) [Example 392], under setting [1], the pIC50 was 5.85.

For `CCCCOc1ccc(NC(=O)N(CC(O)C(F)(F)F)c2cccc(OC(F)(F)F)c2)cc1` (stereo not shown) [Example 367, N′-(4-butoxyphenyl)-N-(3,3,3-trifluoro-2-hydroxypropyl)-N-[3-(trifluoromethoxy)phenyl]urea], the pIC50 under setting [1] is below 4.00.

For the compound `OC(CN(Cc1cccc(OC(F)(F)C(F)F)c1)c1cccc(Oc2cccc(F)c2F)c1)C(F)(F)F` (stereo not shown) [Example 238], under setting [1], the negative logarithm of the IC50 (pIC50) is 6.92.

On to `OC(CN(Cc1cccc(OC(F)(F)F)c1)c1ccc2c(c1)OCO2)C(F)(F)F` (stereo not shown) [Example 129], for which, under setting [1], the pIC50 was 5.05.

`OC(CN(Cc1ccc(C(F)(F)F)cc1)Cc1cccc(F)c1)C(F)(F)F` (stereo not shown) [compound 169]: the pIC50 under setting [1] was below 4.00.

Take `Cc1cc(Cc2cccc(N(Cc3cccc(OC(F)(F)C(F)F)c3)CC(O)C(F)(F)F)c2)ccc1Cl` (stereo not shown) [Example 522]: the pIC50 under setting [1] was 5.85.

Turning to `CCCCc1ccc(Oc2cccc(N(Cc3cccc(OC(F)(F)C(F)F)c3)CC(O)C(F)(F)F)c2)cc1` (stereo not shown) [Example 261], the pIC50 under setting [1] was 5.77.

For `CC(C)NC(=O)c1cccc(N(Cc2cccc(OC(F)(F)C(F)F)c2)CC(O)C(F)(F)F)c1` (stereo not shown) [Example 457], the pIC50 under setting [1] is 4.89.

For the compound `OC(CN(Cc1cccc(C2CCCO2)c1)c1cccc(Oc2ccccc2)c1)C(F)(F)F` (stereo not shown) [Example 608, 3-[(3-phenoxyphenyl)[[3-(tetrahydro-2-furanyl)phenyl]methyl]amino]-1,1,1-trifluoro-2-propanol], the pIC50 under setting [1] is 5.64.

Turning to `Cc1cccc(N(Cc2cccc(OC(F)(F)F)c2)CC(O)C(F)(F)F)c1` (stereo not shown) [Example 72], the pIC50 under setting [1] is 5.00.

As to `OC(CN(Cc1cccc(OC(F)(F)C(F)F)c1)c1cccc(Cc2cccc(C(F)(F)F)c2)c1)C(F)(F)F` (stereo not shown) [Example 514, 3-[[[3-(1,1,2,2-tetrafluoroethoxy)phenyl]methyl][3-[[(3-trifluoromethyl)-phenyl]methyl]phenyl]amino]-1,1,1-trifluoro-2-propanol], the pIC50 under setting [1] is 6.47.

Take `OC(CNc1cccc(Oc2ccccc2)c1)C(F)(F)F` (stereo not shown) [588B]: the pIC50 under setting [1] is below 4.00.

For the compound `O=[N+]([O-])c1ccc(S(=O)(=O)c2cccc(N(Cc3cccc(OC(F)(F)C(F)F)c3)CC(O)C(F)(F)F)c2)cc1` (stereo not shown) [Example 483], under setting [1], the pIC50 is 5.66.

On to `Cc1ccc(-c2noc(-c3ccc(Nc4cccc(N(Cc5cccc(OC(F)(F)C(F)F)c5)CC(O)C(F)(F)F)c4)cc3)n2)cc1` (stereo not shown) [Example 300], for which the pIC50 under setting [1] is 4.51.

In the case of `O=C(O)c1cccc(COc2cccc(N(Cc3cccc(OC(F)(F)C(F)F)c3)CC(O)C(F)(F)F)c2)c1` (stereo not shown) [Example 435, 3-[[3-[[[3-(1,1,2,2-tetrafluoroethoxy)phenyl]methyl](3,3,3-trifluoro-2-hydroxypropyl)amino]phenoxy]methyl]benzoic Acid], the negative-log IC50 (pIC50) under setting [1] was below 4.30.

For `OC(CN(Cc1cccc(OC(F)(F)C(F)F)c1)c1cccc(Oc2cc(F)ccn2)c1)C(F)(F)F` (stereo not shown) [Example 443], under setting [1], the pIC50 was below 4.30.

Consider `N#Cc1cccc(CN(CC(O)C(F)(F)F)c2cccc(OC(F)(F)F)c2)c1` (stereo not shown) [Example 327], for which the pIC50 under setting [1] is below 4.00.

Take `OC(CN(Cc1ccc(OC(F)(F)F)cc1)c1cccc(F)c1F)C(F)(F)F` (stereo not shown) [Example 80]: the pIC50 under setting [1] was 4.70.

With `OC(CN(Cc1cccc(OC(F)(F)C(F)F)c1)c1cccc(Oc2ccc(Cl)c(Cl)c2)c1)C(F)(F)F` (stereo not shown) [Example 256], the pIC50 under setting [1] was 7.10.

Turning to `Cc1ccccc1N(Cc1ccc(C(F)(F)F)cc1)CC(O)C(F)(F)F` (stereo not shown) [Example 40], the pIC50 under setting [1] was below 4.00.

Turning to `COc1ccccc1N(Cc1ccc(C)cc1)CC(O)C(F)(F)F` (stereo not shown) [Example 667], the negative-log IC50 (pIC50) under setting [1] was below 4.00.

`OC(CN(Cc1cccc(OC(F)(F)C(F)F)c1)c1cccc(I)c1)C(F)(F)F` (stereo not shown) [Example 44]: under setting [1], the pIC50 was 5.57.

Take `OC(CN(Cc1cccc(-c2cccnc2)c1)c1cccc(Oc2ccccc2)c1)C(F)(F)F` (stereo not shown) [Example 590]: the pIC50 under setting [1] is 4.85.

Compound `OC(CN(Cc1cccc(OC(F)(F)C(F)F)c1)c1cccc(Oc2cccnc2)c1)C(F)(F)F` (stereo not shown) [Example 286] had a pIC50 (IC50, Inhibition of CETP activity in reconstituted buffer assay) of 5.89.

For the compound `CC(C)COc1cccc(N(Cc2cccc(OC(F)(F)C(F)F)c2)CC(O)C(F)(F)F)c1` (stereo not shown) [Example 492], under setting [1], the pIC50 is 5.92.

`CC(C)(C)c1ccc(Oc2cccc(N(Cc3cccc(OC(F)(F)C(F)F)c3)CC(O)C(F)(F)F)c2)cc1` (stereo not shown) [Example 437]: under setting [1], the pIC50 was 5.66.

With `N#Cc1ncccc1Oc1cccc(N(Cc2cccc(OC(F)(F)C(F)F)c2)CC(O)C(F)(F)F)c1` (stereo not shown) [Example 441], the pIC50 under setting [1] is 5.92.

In the case of `O=C(c1ccc(F)cc1)c1cccc(N(Cc2cccc(OC(F)(F)C(F)F)c2)CC(O)C(F)(F)F)c1` (stereo not shown) [Example 580], the pIC50 under setting [1] was 5.64.

For `OC(CN(Cc1cccc(Oc2ccccc2)c1)c1ccc(Oc2ccccc2)cc1)C(F)(F)F` (stereo not shown) [Example 151], the pIC50 under setting [1] is below 4.00.

`O=[N+]([O-])c1cccc(CN(CC(O)C(F)(F)F)c2cccc(OC(F)(F)F)c2)c1` (stereo not shown) [Example 335]: under setting [1], the pIC50 was 4.40.

On to `OC(CN(Cc1ccc(C(F)(F)F)cc1)Cc1cccc(Cl)c1)C(F)(F)F` (stereo not shown) [compound 172], for which, under setting [1], the negative-log IC50 (pIC50) is 5.15.

`OC(CN(CCc1c[nH]c2ccccc12)c1cccc(OC(F)(F)F)c1)C(F)(F)F` (stereo not shown) [Example 344]: under setting [1], the pIC50 is below 4.00.

`OC(CN(Cc1ccc(OCc2ccccc2)c(OCc2ccccc2)c1)c1cccc(OC(F)(F)F)c1)C(F)(F)F` (stereo not shown) [Example 100]: under setting [1], the pIC50 is 4.05.

Take `O=S(=O)(Nc1cccc(N(Cc2cccc(OC(F)(F)C(F)F)c2)CC(O)C(F)(F)F)c1)c1ccc(F)cc1` (stereo not shown) [Example 528, 4-fluoro-N-[3-[[[3-(1,1,2,2-tetrafluoroethoxy)phenyl]methyl](3,3,3-trifluoro-2-hydroxypropyl)amino]phenyl]benzenesulfonamide]: under setting [1], the pIC50 is 4.37.

Take `O=C(c1cccc(N(Cc2cccc(OC(F)(F)C(F)F)c2)CC(O)C(F)(F)F)c1)N1CCCCC1` (stereo not shown) [Example 456]: the pIC50 under setting [1] was 5.04.

For the origin of these results see patent US6723753B2, “Substituted n-benzyl-n-phenyl aminoalcohol compounds useful for inhibiting cholesteryl ester transfer protein activity” (Pharmacia Corporation, priority 2002, dated 2004).
